Structures can show the parent of a compound that is named as a salt. Where two headings read alike, the source gives them in different places.
Tests used:
cholesterol biosynthesis = assay: Inhibition of cholesterol biosynthesis; format: biochemical
[1] = molecular target: T1, 3-hydroxy-3-methylglutaryl-CoA reductase (Rattus norvegicus, UniProt P51639); assay: Inhibition of 3-hydroxy-3-methylglutaryl-CoA reductase; format: biochemical
T1 construct: Employed as an enzyme microsome of rat liver; from tissue; host or cells: rat liver microsomes
T1 sequence (P51639 1-887): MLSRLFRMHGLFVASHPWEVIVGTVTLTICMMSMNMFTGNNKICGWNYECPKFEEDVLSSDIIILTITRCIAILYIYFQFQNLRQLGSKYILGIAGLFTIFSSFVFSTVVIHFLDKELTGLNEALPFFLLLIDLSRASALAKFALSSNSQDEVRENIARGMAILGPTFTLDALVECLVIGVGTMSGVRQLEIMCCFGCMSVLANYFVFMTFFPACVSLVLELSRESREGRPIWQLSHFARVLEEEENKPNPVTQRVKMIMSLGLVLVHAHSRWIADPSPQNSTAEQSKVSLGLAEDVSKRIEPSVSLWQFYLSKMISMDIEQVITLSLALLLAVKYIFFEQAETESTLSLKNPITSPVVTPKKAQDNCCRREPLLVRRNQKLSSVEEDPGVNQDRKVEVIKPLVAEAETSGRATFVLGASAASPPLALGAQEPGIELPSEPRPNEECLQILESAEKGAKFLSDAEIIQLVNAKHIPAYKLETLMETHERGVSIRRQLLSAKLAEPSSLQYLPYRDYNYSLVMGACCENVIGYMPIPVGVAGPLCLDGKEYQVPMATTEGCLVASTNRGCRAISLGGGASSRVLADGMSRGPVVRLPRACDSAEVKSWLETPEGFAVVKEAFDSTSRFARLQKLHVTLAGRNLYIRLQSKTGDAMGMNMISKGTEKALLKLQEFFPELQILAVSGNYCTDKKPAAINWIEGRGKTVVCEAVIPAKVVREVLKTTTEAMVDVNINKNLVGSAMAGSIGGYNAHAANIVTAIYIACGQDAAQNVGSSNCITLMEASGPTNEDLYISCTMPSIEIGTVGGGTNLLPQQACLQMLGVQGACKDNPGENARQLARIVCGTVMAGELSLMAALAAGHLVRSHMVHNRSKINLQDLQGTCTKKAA
Source text: Inhibition activity of cholesterol biosynthesis [determined according to the method disclosed in J. Biol. Chem., 234, 2835 (1959)] and inhibition activity on 3-hydroxy-3-methylglutaryl-CoA reductase [determined according to the method disclosed in Anal. Biochem., 31, 383 (1969)] of these compounds are summarized in Table 1.
*Employed as an enzyme microsome of rat liver.

[2] = test system: total serum cholesterol in beagle dogs; assay: Lowering activity of blood cholesterol in beagle dogs; format: in vivo, beagle dog; details: for inhibition in vivo at 25 mg/kg/day / inhibition in vivo at 100 mg/kg/day: Canis lupus familiaris, po, 120 h, read-out: Lowering rate of total serum cholesterol
Source text: The test was to orally administer an encapsulated test sample twice per day, in the morning (9 o'clock) and evening (16 o'clock), for continuous 5 days, collect a blood sample in the morning after 5 days and determine a total cholesterol level in serum by a conventional method.

[3] = test system: serum cholesterol in rats; assay: Lowering activity of blood cholesterol in rats; format: in vivo, rat; details: for inhibition in vivo at 5 mg/kg / inhibition in vivo at 20 mg/kg: Rattus norvegicus, po, 18 h, read-out: Lowering rate of serum cholesterol
Method: A lowering activity of blood cholesterol in rats was assayed on rats. The test was to orally administer a test sample suspended in water, collect a blood sample after 18 hours and determine a cholesterol level in serum by a conventional method.

Acute toxicity in mouse = details: in vivo, ip
Method: (§1) Acute toxicity of ML-236B carboxylic acid derivatives (I) was determined in oral and intraperitoneal administration (both as an aqueous suspension).

Acute toxicity in rat = details: in vivo, po
Method: as §1

Mouse = assay: Acute toxicity in mouse; details: aqueous suspension
Method: as §1

Rat = assay: Acute toxicity in rat; details: aqueous suspension
Method: as §1

[4] = enzyme: microsome of rat liver, read-out: Concentration to inhibit 50% of 3-hydroxy-3-methylglutaryl-CoA reductase (converted)
[5] = beagle dogs, 25 mg/kg/day, oral twice per day, 5 days
[6] = beagle dogs, 100 mg/kg/day, oral twice per day, 5 days
[7] = rats, 5 mg/kg, oral, after 18 hours
[8] = rats, 20 mg/kg, oral, after 18 hours
[9] = LD50, mouse, aqueous suspension
[10] = rats, 5 mg/kg, oral, after 18 hours, 5 mg/kg
[11] = rats, 20 mg/kg, oral, after 18 hours, 20 mg/kg

Structure (SMILES) | Concentration to inhibit 50% of cholesterol biosynthesis (cholesterol biosynthesis) [µg/mL] | IC50 [1, 4] [nM] | inhibition in vivo at 25 mg/kg/day [2, 5] [%] | inhibition in vivo at 100 mg/kg/day [2, 6] [%] | inhibition in vivo at 5 mg/kg [3, 7] [%] | inhibition in vivo at 20 mg/kg [3, 8] [%] | LD50 (Acute toxicity in mouse; [9]) [mg/kg] | LD50 (Acute toxicity in rat; LD50, rat, aqueous suspension) [mg/kg] | other results
CCC(C)C(=O)OC1CCC=C2C=CC(C)C(CCC(O)CC(O)CC(=O)OCC(=O)c3ccccc3)C21 (centres unmarked) [phenacyl, Phenacyl ML-236B carboxylate] | 0.01 | 380 | 32 | 42 | 14 | 21 | > 500 | > 2000 | –
CCC(C)C(=O)OC1CCC=C2C=CC(C)C(CCC(O)CC(O)CC(=O)OCC(=O)c3ccc(C)cc3)C21 (centres unmarked) [4-methylphenacyl, 4-Methylphenacyl ML-236B carboxylate] | 0.01 | 370 | 20 | 33 | 14 | 19 | > 500 | > 2000 | –
CCC(C)C(=O)OC1CCC=C2C=CC(C)C(CCC(O)CC(O)CC(=O)OCC(=O)c3ccc(Br)cc3)C21 (centres unmarked) [4-bromophenacyl, 4-Bromophenacyl ML-236B carboxylate] | 0.01 | 330 | 21 | 30 | 17 | 24 | > 500 | > 2000 | –
CCC(C)C(=O)OC1CCC=C2C=CC(C)C(CCC(O)CC(O)CC(=O)OCc3ccc(OC)cc3)C21 (centres unmarked) [4-methoxybenzyl, 4-Methoxybenzyl ML-236B carboxylate] | 0.01 | – | – | – | – | – | – | – | IC50 [1]: 378 nM; inhibition in vivo at 25 mg/kg/day [2]: 26%; inhibition in vivo at 100 mg/kg/day [2]: 36%; inhibition in vivo at 5 mg/kg [3]: 17%; inhibition in vivo at 20 mg/kg [3]: 20%; LD50 (Acute toxicity in mouse): > 500 mg/kg; LD50 (Acute toxicity in rat): > 2000 mg/kg
CCC(C)C(=O)OC1CCC=C2C=CC(C)C(CCC(O)CC(O)CC(=O)OC(C)C)C21 (centres unmarked) [isopropyl, Isopropyl ML-236B carboxylate] | 0.04 | 355 | 19 | 30 | 16 | 25 | > 500 | > 2000 | –
CCCCOC(=O)CC(O)CC(O)CCC1C(C)C=CC2=CCCC(OC(=O)C(C)CC)C21 (centres unmarked) [n-butyl, n-Butyl ML-236B carboxylate] | 0.02 | 344 | 32 | 46 | 20 | 26 | > 500 | > 2000 | –
CCC(C)C(=O)OC1CCC=C2C=CC(C)C(CCC(O)CC(O)CC(=O)O)C21 (centres unmarked) [Lysine, Lysine salt of ML-236B carboxylic acid] | 0.006 | – | – | – | – | – | – | – | Lowering rate of total serum cholesterol [2, 5]: 24%; Lowering rate of total serum cholesterol [2, 6]: 44%; Lowering rate of serum cholesterol [3, 10]: 16.9%; Lowering rate of serum cholesterol [3, 11]: 23.8%; LD50 (Mouse; i.p.): > 500 mg/kg; LD50 (Mouse; p.o.): > 5,000 mg/kg; LD50 (Rat; i.p.): > 500 mg/kg; LD50 (Rat; p.o.): > 5,000 mg/kg
CCC(C)C(=O)OC1CCC=C2C=CC(C)C(CCC(O)CC(O)CC(=O)OCc3ccc(C)cc3)C21 (centres unmarked) [4-methylbenzyl, 4-Methylbenzyl ML-236B carboxylate] | 0.01 | 390 | 30 | 41 | 13 | 26 | > 500 | > 2000 | –
CCC(C)C(=O)OC1CCC=C2C=CC(C)C(CCC(O)CC(O)CC(=O)OC)C21 (centres unmarked) [methyl, Methyl ML-236B carboxylate] | 0.01 | – | – | – | – | – | – | – | IC50 [1]: 355 nM; inhibition in vivo at 25 mg/kg/day [2]: 12%; inhibition in vivo at 100 mg/kg/day [2]: 26%; inhibition in vivo at 5 mg/kg [3]: 18%; inhibition in vivo at 20 mg/kg [3]: 23%; LD50 (Acute toxicity in mouse): > 500 mg/kg; LD50 (Acute toxicity in rat): > 2000 mg/kg
CCCCCCOC(=O)CC(O)CC(O)CCC1C(C)C=CC2=CCCC(OC(=O)C(C)CC)C21 (centres unmarked) [n-hexyl, Hexyl ML-236B carboxylate] | 0.02 | 365 | 17 | 29 | 14 | 23 | > 500 | > 2000 | –
CCC(C)C(=O)OC1CCC=C2C=CC(C)C(CCC(O)CC(O)CC(=O)O)C21 (centres unmarked) [Ca, Calcium ML-236B carboxylate] | 0.006 | – | – | – | – | – | – | – | Lowering rate of total serum cholesterol [2, 5]: 28%; Lowering rate of total serum cholesterol [2, 6]: 44%; Lowering rate of serum cholesterol [3, 10]: 16.5%; Lowering rate of serum cholesterol [3, 11]: 20.9%; LD50 (Mouse; i.p.): > 500 mg/kg; LD50 (Mouse; p.o., listed as Ca salt): > 2,000 mg/kg; LD50 (Rat; i.p.): > 500 mg/kg; LD50 (Rat; p.o., listed as Ca salt): > 2,000 mg/kg
CCC(C)C(=O)OC1CCC=C2C=CC(C)C(CCC(O)CC(O)CC(=O)OCC(=O)c3ccc(OC)cc3)C21 (centres unmarked) [4-methoxyphenacyl, 4-Methoxyphenacyl ML-236B carboxylate] | 0.01 | 359 | 26 | 39 | 14 | 23 | > 500 | > 2000 | –
CCC(C)C(=O)OC1CCC=C2C=CC(C)C(CCC(O)CC(O)CC(=O)OCc3ccccc3)C21 (centres unmarked) [benzyl, Benzyl ML-236B carboxylate] | 0.01 | 401 | 24 | 38 | 14 | 24 | > 500 | > 2000 | –
CCC(C)C(=O)OC1CCC=C2C=CC(C)C(CCC3CC(O)CC(=O)O3)C21 (centres unmarked) [ML-236B] | 0.01 | 12300 | < 5 | 19 | 11.2 | 17.1 | – | – | –
CCC(C)C(=O)OC1CCC=C2C=CC(C)C(CCC(O)CC(O)CC(=O)OCc3ccc(Cl)cc3)C21 (centres unmarked) [4-chlorobenzyl, 4-Chlorobenzyl ML-236B carboxylate] | 0.01 | 375 | 20 | 36 | 15 | 21 | > 500 | > 2000 | –
CCOC(=O)CC(O)CC(O)CCC1C(C)C=CC2=CCCC(OC(=O)C(C)CC)C21 (centres unmarked) [ethyl, Ethyl ML-236B carboxylate] | 0.01 | – | – | – | – | – | – | – | IC50 [1]: 366 nM; inhibition in vivo at 25 mg/kg/day [2]: 13%; inhibition in vivo at 100 mg/kg/day [2]: 19%; inhibition in vivo at 5 mg/kg [3]: 19%; inhibition in vivo at 20 mg/kg [3]: 25%; LD50 (Acute toxicity in mouse): > 500 mg/kg; LD50 (Acute toxicity in rat): > 2000 mg/kg

Reference: patent publication US4137322A, “ML-236B carboxylic acid derivatives and their use as antihyperlipemic agents” (Sankyo Company Limited, priority 1976, dated 1979)
